Like-named read-outs stand apart in the source and are kept apart here.
How the values were obtained:
Assay type in all cases: cell-based
[1] = tested on: mantle cell lymphoma cell (Mino or JeKo-1); assay: Antiproliferative effect, MTS cell viability assay
Protocol: Antiproliferative effect of the exemplary compounds was assessed in B-cell malignancy models.
To assess the effect of the exemplary compounds on cell viability in B-cell malignancy models by degradation of CDK4/6 proteins, Mino cells were treated with varying concentrations of exemplary compounds (0, 0.0001, 0.001, 0.01, 0.1, 1 μM) or positive control (palbociclib and abemaciclib). Under these conditions, cell viability was determined by an MTS assay. Cytotoxicity was assayed by the determination of reduced tetrazolium (formazan) created by metabolically active cells as detected at 490 nanometers (nm) absorbance using a microplate reader (BMG Labtech, Cary, NC, USA).
The exemplary compounds attenuated the viability of Mino cells in a concentration-dependent manner at 72 h post treatment. Results are shown in Table 1 and FIGS. 2-15 for each exemplary compound.

[2] = biological target: T1, CDK4 (Homo sapiens, UniProt P11802); assay: CDK4 degradation (DC50, Dmax)
T1 construct: endogenous in cells
T1 sequence (P11802 whole entry): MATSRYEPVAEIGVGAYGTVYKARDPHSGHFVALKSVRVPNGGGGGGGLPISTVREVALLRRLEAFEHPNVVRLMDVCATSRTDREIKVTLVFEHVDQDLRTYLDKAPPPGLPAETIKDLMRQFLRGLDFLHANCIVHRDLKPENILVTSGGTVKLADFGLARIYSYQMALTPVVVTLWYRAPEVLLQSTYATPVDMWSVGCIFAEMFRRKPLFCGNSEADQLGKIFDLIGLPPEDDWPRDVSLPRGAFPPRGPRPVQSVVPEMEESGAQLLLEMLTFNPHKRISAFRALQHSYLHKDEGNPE

[3] = biological target: T2, CDK6 (Homo sapiens, UniProt Q00534); assay: CDK6 degradation (DC50, Dmax)
T2 construct: endogenous in cells
T2 sequence (Q00534 whole entry): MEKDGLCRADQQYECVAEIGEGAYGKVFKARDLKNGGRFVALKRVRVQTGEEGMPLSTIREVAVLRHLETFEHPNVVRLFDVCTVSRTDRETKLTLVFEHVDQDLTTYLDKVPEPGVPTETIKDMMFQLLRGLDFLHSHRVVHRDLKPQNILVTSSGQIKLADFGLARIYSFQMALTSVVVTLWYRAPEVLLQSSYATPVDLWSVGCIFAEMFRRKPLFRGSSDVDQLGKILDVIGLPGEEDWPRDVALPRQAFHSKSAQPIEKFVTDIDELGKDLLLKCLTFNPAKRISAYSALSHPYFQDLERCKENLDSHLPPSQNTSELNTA

[4] = 72 h, mantle cell lymphoma cell (Mino or JeKo-1), MTS assay, read-out: IC50 (anti-proliferation)
[5] = mantle cell lymphoma cell (Mino or JeKo-1); MTS assay, 72 h; read-out: IC50 (anti-proliferation)

Row | SMILES | IC50 [1, 4] | DC50 [2] | Dmax [2] | DC50 [3] | Dmax [3] | IC50 [1, 5] | Dmax CDK4 [2] | Dmax CDK6 [3]
1 | Cc1nc2c(F)cc(-c3nc(Nc4ccc(CC5CCN(CC6CCN(c7ccc(C(=O)NC8CCC(=O)NC8=O)cc7)CC6)CC5)cn4)ncc3F)cc2n1C(C)C (centres unmarked) [Compound 159, N-(2,6-dioxopiperidin-3-yl)-4-(4-((4-((6-((5-fluoro-4-(4-fluoro-1-isopropyl-2-methyl-1H-benzo[d]imidazol-6-yl)pyrimidin-2-yl)amino)pyridin-3-yl)methyl)piperidin-1-yl)methyl)piperidin-1-yl)benzamide] | < 50 nM | < 50 nM | > 80% | < 50 nM | > 80% | – | – | –
2 | CC(=O)c1c(C)c2cnc(Nc3ccc(N4CCN(C(=O)C5CN(c6ccc(C(=O)NC7CCC(=O)NC7=O)cc6)C5)CC4)cn3)nc2n(C2CCCC2)c1=O (centres unmarked) [Compound 123, 4-(3-(4-(6-((6-acetyl-8-cyclopentyl-5-methyl-7-oxo-7,8-dihydropyrido[2,3-d]pyrimidin-2-yl)amino)pyridin-3-yl)piperazine-1-carbonyl)azetidin-1-yl)-N-(2,6-dioxopiperidin-3-yl)benzamide] | < 50 nM | < 50 nM | > 60% | < 50 nM | > 60% | – | – | –
3 | CC(=O)c1c(C)c2cnc(Nc3ccc(N4CCN(C5CCN(c6ccc(N7CCC(=O)NC7=O)cc6)CC5)CC4)cn3)nc2n(C2CCCC2)c1=O [Compound 113, 1-(4-(4-(4-(6-((6-acetyl-8-cyclopentyl-5-methyl-7-oxo-7,8-dibydropyrido[2,3-d]pyrimidin-2-yl)amino)pyridin-3-yl)piperazin-1-yl)piperidin-1-yi)phenyl) dihydropyrimidine-2,4(1H,3H)-dione] | < 50 nM | 50 to 200 nM | > 80% | < 50 nM | > 80% | – | – | –
4 | Cc1nc2c(F)cc(-c3nc(Nc4ccc(CN5CCN(CCNc6cccc7c6CN(C6CCC(=O)NC6=O)C7=O)CC5)cn4)ncc3F)cc2n1C(C)C (centres unmarked) [Compound 93] | – | 50 to 200 nM | – | 50 to 200 nM | – | < 50 nM | A (A: >80%) | A (A: >80%)
5 | CC(=O)c1c(C)c2cnc(Nc3ccc(N4CCN(C5CCN(C(=O)N6CCC(C7CCN(c8ccc9c(c8)C(=O)N(C8CCC(=O)NC8=O)C9=O)CC7)CC6)CC5)CC4)cn3)nc2n(C2CCCC2)c1=O (centres unmarked) [Compound 85, 5-(1′-(4-(4-(6-((6-acetyl-8-cyclopentyl-5-methyl-7-oxo-7,8-dihydropyrido[2,3-d]pyrimidin-2-yl)amino)pyridin-3-yl)piperazin-1-yl)piperidine-1-carbonyl)-[4,4′-bipiperidin]-1-yl)-2-(2,6-dioxopiperidin-3-yl) isoindoline-1,3-dione] | > 200 nM | > 200 nM | > 60% | > 200 nM | > 60% | – | – | –
6 | CN(C)C(=O)c1cc2cnc(Nc3ccc(N4CCN(CCCNc5ccc6c(c5)C(=O)N(C5CCC(=O)NC5=O)C6=O)CC4)cn3)nc2n1C1CCCC1 (centres unmarked) [Compound 75, 7-cyclopentyl-2-((5-(4-(3-((2-(2,6-dioxopiperidin-3-yl)-1,3-dioxoisoindolin-5-yl)amino)propyl)piperazin-1-yl)pyridin-2-yl)amino)-N,N-dimethyl-7H-pyrrolo[2,3-d]pyrimidine-6-carboxamide] | < 50 nM | < 50 nM | > 80% | < 50 nM | > 80% | – | – | –
7 | CC(=O)c1c(C)c2cnc(Nc3ccc(C4CCN(C(=O)C5CN(c6ccc(NC7CCC(=O)NC7=O)cc6)C5)CC4)cn3)nc2n(C2CCCC2)c1=O (centres unmarked) [Compound 132, 3-((4-(3-(4-(6-((6-acetyl-8-cyclopentyl-5-methyl-7-oxo-7,8-dibydropyrido[2,3-d]pyrimidin-2-yl)amino)pyridin-3-yl)piperidine-1-carbonyl)azetidin-1-yl)phenyl)amino) piperidine-2,6-dione] | < 50 nM | 50 to 200 nM | > 80% | < 50 nM | > 80% | – | – | –
8 | CC(=O)c1c(C)c2cnc(Nc3ccc(N4CCN(CCCCN(C)c5ccc6c(c5)C(=O)N(C5CCC(=O)NC5=O)C6=O)CC4)cn3)nc2n(C2CCCC2)c1=O (centres unmarked) [Compound 59, 5-((4-(4-(6-((6-acetyl-8-cyclopentyl-5-methyl-7-oxo-7,8-dihydropyrido[2,3-d]pyrimidin-2-yl)amino)pyridin-3-yl)piperazin-1-yl)butyl)(methyl)amino)-2-(2,6-dioxopiperidin-3-yl) isoindoline-1,3-dione] | 50 to 200 nM | 50 to 200 nM | > 60% | 50 to 200 nM | > 60% | – | – | –
9 | Cc1nc2c(F)cc(-c3nc(Nc4ccc(CN5CCN(C(=O)C6CN(c7ccc(NC8CCC(=O)NC8=O)cc7)C6)CC5)cn4)ncc3F)cc2n1C(C)C (centres unmarked) [Compound 138, 3-((4-(3-(4-((6-((5-fluoro-4-(4-fluoro-1-isopropyl-2-methyl-1H-benzo[d]imidazol-6-yl)pyrimidin-2-yl)amino)pyridin-3-yl)methyl)piperazine-1-carbonyl)azetidin-1-yl)phenyl)amino) piperidine-2,6-dione] | 50 to 200 nM | 50 to 200 nM | > 60% | 50 to 200 nM | > 60% | – | – | –
10 | CC(=O)c1c(C)c2cnc(Nc3ccc(N4CCN(CCN(C)c5ccc6c(c5)CN(C5CCC(=O)NC5=O)C6=O)CC4)cn3)nc2n(C2CCCC2)c1=O (centres unmarked) [Compound 56, 3-(5-((2-(4-(6-((6-acetyl-8-cyclopentyl-5-methyl-7-oxo-7,8-dihydropyrido[2,3-d]pyrimidin-2-yl)amino)pyridin-3-yl)piperazin-1-yl)ethyl)(methyl)amino)-1-oxoisoindolin-2-yl)piperidine-2,6-dione] | 50 to 200 nM | 50 to 200 nM | > 60% | 50 to 200 nM | > 60% | – | – | –
11 | CC(=O)c1c(C)c2cnc(Nc3ccc(N4CCN(C(=O)C5CCN(c6ccc(NC7CCC(=O)NC7=O)cc6)CC5)CC4)cn3)nc2n(C2CCCC2)c1=O (centres unmarked) [Compound 117, 3-((4-(4-(4-(6-((6-acetyl-8-cyclopentyl-5-methyl-7-oxo-7,8-dihydropyrido[2,3-d]pyrimidin-2-yl)amino)pyridin-3-yl)piperazine-1-carbonyl)piperidin-1-yl)phenyl)amino) piperidine-2,6-dione] | < 50 nM | < 50 nM | > 80% | 50 to 200 nM | > 60% | – | – | –
12 | CC(=O)c1c(C)c2cnc(Nc3ccc(N4CCN(C(=O)N5CCC(N6CCN(c7ccc8c(c7)C(=O)N(C7CCC(=O)NC7=O)C8=O)CC6)CC5)CC4)cn3)nc2n(C2CCCC2)c1=O (centres unmarked) [Compound 3, 5-(4-(1-(4-(6-((6-acetyl-8-cyclopentyl-5-methyl-7-oxo-7,8-dihydropyrido[2,3-d]pyrimidin-2-yl)amino)pyridin-3-yl)piperazine-1-carbonyl)piperidin-4-yl)piperazin-1-yl)-2-(2,6-dioxopiperidin-3-yl)isoindoline-1,3-dione] | 50 to 200 nM | > 200 nM | > 50% | > 200 nM | > 50% | – | – | –
13 | Cc1nc2c(F)cc(-c3nc(Nc4ccc(CC5CCN(C(=O)C6CCN(c7ccc(NC8CCC(=O)NC8=O)cc7)CC6)CC5)cn4)ncc3F)cc2n1C(C)C (centres unmarked) [Compound 164, 3-((4-(4-(4-((6-((5-fluoro-4-(4-fluoro-1-isopropyl-2-methyl-1H-benzo[d]imidazol-6-yl)pyrimidin-2-yl)amino)pyridin-3-yl)methyl)piperidine-1-carbonyl)piperidin-1-yl)phenyl)amino) piperidine-2,6-dione] | 50 to 200 nM | 50 to 200 nM | > 60% | 50 to 200 nM | > 80% | – | – | –
14 | CC(=O)c1c(C)c2cnc(Nc3ccc(N4CCN(C5CCN(C(=O)N6CCN(c7ccc8c(c7)C(=O)N(C7CCC(=O)NC7=O)C8=O)CC6)CC5)CC4)cn3)nc2n(C2CCCC2)c1=O (centres unmarked) [Compound 35, 5-(4-(4-(4-(6-((6-acetyl-8-cyclopentyl-5-methyl-7-oxo-7,8-dihydropyrido[2,3-d]pyrimidin-2-yl)amino)pyridin-3-yl)piperazin-1-yl)piperidine-1-carbonyl)piperazin-1-yl)-2-(2,6-dioxopiperidin-3-yl)isoindoline-1,3-dione] | – | 50 to 200 nM | > 60% | > 200 nM | > 60% | 50 to 200 nM | – | –
15 | Cc1nc2c(F)cc(-c3nc(Nc4ccc(CN5CCN(C6CN(c7ccc8c(c7)CN(C7CCC(=O)NC7=O)C8=O)C6)CC5)cn4)ncc3F)cc2n1C(C)C (centres unmarked) [Compound 97, 3-(5-(3-(4-((6-((5-fluoro-4-(4-fluoro-1-isopropyl-2-methyl-1H-benzo[d]imidazol-6-yl)pyrimidin-2-yl)amino)pyridin-3-yl)methyl)piperazin-1-yl)azetidin-1-yl)-1-oxoisoindolin-2-yl)piperidine-2,6-dione] | < 50 nM | < 50 nM | > 80% | < 50 nM | > 80% | – | – | –
16 | Cc1nc2c(F)cc(-c3nc(Nc4ccc(CN5CCN(CC6CCN(c7ccc8c(c7)C(=O)N(C7CCC(=O)NC7=O)C8=O)CC6)CC5)cn4)ncc3F)cc2n1C(C)C (centres unmarked) [Compound 149, 2-(2,6-dioxopiperidin-3-yl)-5-(4-((4-((6-((5-fluoro-4-(4-fluoro-1-isopropyl-2-methyl-1H-benzo[d]imidazol-6-yl)pyrimidin-2-yl)amino)pyridin-3-yl)methyl)piperazin-1-yl)methyl)piperidin-1-yl)isoindoline-1,3-dione] | < 50 nM | < 50 nM | > 80% | < 50 nM | > 80% | – | – | –

— patent US20230295118A1 (EnhancedBio Inc., priority 2022, published 2023)
